Laboratory results reported in patent US7999136B2 (priority 2007, dated 2011).

Key:
[1] = system: Puccinia recondita f. sp. tritici; assay: Test of curative effect on wheat leaf rust; type: in vivo; details: wheat (Shirogane), foliage application 500 ppm, curative (1 day after inoculation), 6 days after application
Experimental: (§1) The controlling effect was evaluated by visually observing the area or lesion spots on each of test plants at the time of investigation and comparing the area of lesion spots on a plant treated with the present compound with that on an untreated plant.
Test of Curative Effect on Wheat Leaf Rust (Puccinia recondita f. sp. tritici)
Each of plastic pots was filled with sandy loam and sown with wheat (cultivar: Shirogane), followed by growing in a greenhouse for 9 days. The plant was inoculated by sprinkling with spores of Puccinia recondita f. sp. tritici. After the inoculation, the plant was held under darkness and high humidity conditions at 23° C. for 1 day and then air-dried to give a seedling infected with Puccinia recondita f. sp. tritici. The present compound 10 was formulated into a flowable formulation according to Formulation Example 6. The flowable formulation was diluted to a predetermined concentration (500 ppm) with water, and foliage application of the dilution was carried out so that the dilution adhered sufficiently to the surfaces of leaves of the above plant. After the foliage application, the plant was air-dried and held under lighting conditions for 6 days, and then the area of lesions was investigated.

[2] = system: Erysiphe graminis f. sp. tritici; assay: Test of preventive effect on wheat powdery mildew; type: in vivo; details: wheat (Shirogane), foliage application 500 ppm, 7 days after inoculation
Experimental: as §1
Test of Preventive Effect on Wheat Powdery Mildew (Erysiphe graminis f. sp. tritici)
Each of plastic pots was filled with sandy loam and sown with wheat (cultivar: Shirogane), followed by growing in a greenhouse for 10 days. The present compound 8 was formulated into a flowable formulation according to Formulation Example 6. The flowable formulation was diluted to a predetermined concentration (500 ppm) with water, and foliage application of the dilution was carried out so that the dilution adhered sufficiently to the surfaces of leaves of the grown wheat young seedling. After the foliage application, the plant was air-dried and then inoculated by sprinkling with spores of Erysiphe graminis f. sp. tritici. After the inoculation, the plant was held in a greenhouse at 23° C. for 7 days and the area of lesion spots was investigated.

Row | Compound | area of lesion spots on the treated plant relative to that on an untreated plant [1] [%] | area of lesion spots on the treated plant relative to that on an untreated plant [2] [%]
1 | C#CCOc1cc(F)c(C(=O)NC(C)C(C)C)cc1F (centres unmarked) [compound 10] | ≤ 30 | –
2 | C#CCOc1cc(F)c(C(=O)NCC2CCCCC2)cc1F [compound 8] | – | ≤ 30
